Source: patent publication US4362667A, “Optical isomers of 4-amino-N-(1-cyclohexyl-3-pyrrolidinyl)-N-methylbenzamide” (A. H. Robins Company, Inc., priority 1981, dated 1982)

Test system: rat
Experiment: Cataleptic effects
Type: in vivo
Settings: fumarate salt, expressed as free base
From the text: The procedure used for determing cataleptic effects of the fumarate salte was based on that of Tedeschi et al., Arch. Int. Pharmacodyn.

| Compound | cataleptic effect, Summary (IP) | cataleptic effect, Summary (PO) | cataleptic effect, Ed50 (estimated) (PO) |
| --- | --- | --- | --- |
| CN(C(=O)c1ccc(N)cc1)C1CCN(C2CCCCC2)C1 (racemic) [± racemate, 4-Amino-N-(1-cyclohexyl-3-pyrrolidinyl)-N-methylbenzamide] | NSE to 100 | NSE to 200 |  |
| CN(C(=O)c1ccc(N)cc1)C1CCN(C2CCCCC2)C1 (single isomer, unassigned; (+)) [(+)-isomer, (+)-4-Amino-N-(1-cyclohexyl-3-pyrrolidinyl)-N-methylbenzamide] | NSE to 100 | NSE to 200 |  |
| CN(C(=O)c1ccc(N)cc1)C1CCN(C2CCCCC2)C1 (single isomer, unassigned; (-)) [(-)-isomer, (-)-4-amino-N-(1-cyclohexyl-3-pyrrolidinyl)-N-methylbenzamide] |  |  | ~80 mg/kg |
